Assays:
ruKATP-1 [1] = target: T1, ruKATP-1 (Rattus norvegicus, UniProt Q63664); assay: Single-channel analysis of HEK 239 cells having ruKATP-1 expressed (inside-out mode); type: cell-based; conditions: for uKATP-1 channel activity (state of channel): inside-out mode
T1 construct: The expression plasmid (pCMV6b) carrying a full-length ruKATP-1 coding cDNA was transfected into HEK 239 cells; expressed in transfected cells; host or cells: HEK 239 (sic) cells, plasmid pCMV6b, Lipofectamine
T1 sequence (Q63664 1-424): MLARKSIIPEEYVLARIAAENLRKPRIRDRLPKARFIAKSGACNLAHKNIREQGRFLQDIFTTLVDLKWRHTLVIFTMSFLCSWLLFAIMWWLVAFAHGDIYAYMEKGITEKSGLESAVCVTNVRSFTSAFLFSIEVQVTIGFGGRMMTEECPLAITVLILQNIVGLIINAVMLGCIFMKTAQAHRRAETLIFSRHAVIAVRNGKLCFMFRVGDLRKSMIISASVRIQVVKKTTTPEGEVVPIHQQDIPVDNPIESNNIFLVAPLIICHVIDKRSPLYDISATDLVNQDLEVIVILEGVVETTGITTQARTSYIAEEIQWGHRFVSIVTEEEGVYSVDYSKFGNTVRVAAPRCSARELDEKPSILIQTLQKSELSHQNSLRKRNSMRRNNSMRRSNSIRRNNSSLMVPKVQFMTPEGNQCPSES
Procedure: […] cells were cultured in minimum essential Eagle's medium supplemented with 10% of horse serum. The expression plasmid (pCMV6b) carrying a full-length ruKATP-1 coding cDNA was transfected into […] cells with use of Lipofectamine to prepare transformed HEK 293 cells. The transformed cells produced in this. manner were subjected to single channel analysis, with the results being shown in FIGS. 8A and 8B.
FIG. 7 illustrates effects of ATP on the uKATP-1 channel activity as observed in the inside-out mode.

ruKATP-1 [2] = target: T1, ruKATP-1; assay: Electrophysiological analysis of Xenopus oocytes injected with ruKATP-1 cRNA; type: cell-based
Procedure: A 20 ng quantity of cRNA synthesized in vitro from plasmid pGEM11Z containing a full-length ruKATP-1 cDNA with the RNA polymerase after being linearized through treatment with a restriction enzyme Not1 was injected into Xenopus oocytes, followed by electrophysiological analysis 2 or 3 days later. (see FIG. 7). As is illustrated in FIGS. 7A and 7B, there was observed a K^+ electric current showing weak inward rectification. The K^+ electric current was suppressed by adding Ba^2+ in the exracellular fluid.

Nc1ncnc2c1ncn2[C@@H]1O[C@H](COP(=O)(O)OP(=O)(O)OP(=O)(O)O)[C@@H](O)[C@H]1O [ATP]
uKATP-1 channel activity (state of channel) (ruKATP-1 [1]; 1 μM of ATP added inside the cellular membrane): open
uKATP-1 channel activity (state of channel) (ruKATP-1 [1]; addition of ATP): closed completely

[Ba+2] [Ba^2+]
inward rectification (inward current) of oocytes injected with ruKATP-1 cRNA (ruKATP-1 [2]; 300 μM Ba2+ added to the extracellular fluid, 45 mM [K+] extracellular fluid): blocked
K+ electric current showing weak inward rectification (ruKATP-1 [2]; Ba2+ added in the extracellular fluid, concentration not given): suppressed

[Mg+2] [Mg^2+]
outward electric current flowing through the channel (ruKATP-1 [1]; intracellular Mg2+, transformed HEK cells): suppressed

From patent US6492167B2, “Ubiquitous potassium-channel proteins and their genes” (JCR Pharmaceuticals Co., Ltd., priority 1995, dated 2002)
